Calls of active or inactive are those of the source. The rule behind the calls is not given here.
Assays:
Saccharomyces cerevisiae = assay: […] activity against Saccharomyces cerevisiae by agar diffusion assay; type: functional, organism-based
[1] = test system: Trypanosoma brucei rhodesiense; assay: Antitrypanosomal activity against bloodstream forms of Trypanosoma brucei rhodesiense STIB900; type: functional, organism-based
Plasmodium falciparum = assay: Antiplasmodial activity against erythrocytic stages of Plasmodium falciparum NF54; type: functional, organism-based
Micrococcus luteus = assay: Antibacterial activity against Micrococcus luteus by agar diffusion assay; type: functional, organism-based
[2] = Selectivity index, ratio of IC50 for rat L6 cells to IC50 for erythrocytic stages of Plasmodium falciparum NF54; type: toxicity, cell-based; details: read-out: Ratio IC50
Bacillus subtilis = assay: Antibacterial activity against Bacillus subtilis by agar diffusion assay; type: functional, organism-based
Escherichia coli = assay: Antibacterial activity against Escherichia coli DH10B by agar diffusion assay; type: functional; details: K-12 substr. DH10B
Trypanosoma cruzi = assay: Antitrypanosomal activity against trypomastigote forms of Trypanosoma cruzi Tulahuen C4; type: functional, organism-based
L6 = assay: Cytotoxicity against rat L6 cells; type: cell-based

SMILES	Activity (Saccharomyces cerevisiae)	IC50 [1] [µM]	IC50 (Plasmodium falciparum) [µM]	Activity (Micrococcus luteus)	selectivity ratio [2]	Activity (Bacillus subtilis)	Activity (Escherichia coli)	IC50 (Trypanosoma cruzi) [µM]	IC50 (L6) [µM]
C[C@H]1NC(=O)[C@@H](Cc2ccccc2)NC(=O)[C@@H](NC(=O)Cc2ccccc2)[C@@H](C)OC(=O)[C@H](Cc2c[nH]c3ccccc23)NC(=O)[C@@H]2CCCN2C1=O	inactive	5.11	0.61	inactive	> 151	inactive	inactive	56.4	92.2
CCC(=O)N[C@@H]1C(=O)N[C@H](Cc2ccccc2)C(=O)N[C@H](C)C(=O)N2CCC[C@H]2C(=O)N[C@@H](Cc2c[nH]c3ccccc23)C(=O)O[C@@H]1C	inactive	77.6	15.4	inactive	–	inactive	inactive	98.9	> 151
O=C(Cn1ccnc1[N+](=O)[O-])NCc1ccccc1 [BENZNIDAZOLE]	–	–	–	–	–	–	–	1.73	–
